{"source": "patent US20230277698A1", "about": "“SILICON-CONTAINING LIGAND COMPOUNDS” (Technische Universität München, priority 2020, published 2023)", "key": {"[1]": {"test_system": "LNCaP tumor-bearing CB17-SCID mice", "experiment": "Biodistribution studies 24 h p.i.", "assay_type": "in vivo", "settings": "177Lu-labelled, mean±SD, n=4-5", "procedure": "All animal experiments were conducted in accordance with general animal welfare regulations in Germany (German animal protection act, as amended on 18 May 2018, Art. 141 G v. 29.3.2017|626, approval no. 55.2-1-54-2532-71-13) and the institutional guidelines for the care and use of animals. To establish tumor xenografts, LNCaP cells (approx. 10^7 cells) were suspended in 200 μL of a 1:1 mixture (v/v) of DMEM F-12 and Matrigel (BD Biosciences, Germany), and inoculated subcutaneously onto the right shoulder of 6-8 weeks old CB17-SCID mice (Charles River, Sulzfeld, Germany). Mice were used for experiments when tumors had grown to a diameter of 5-10 mm (3-6 weeks after inoculation).\nApproximately 5-10 MBq (0.1-0.2 nmol) of the radioactive-labelled PSMA inhibitors were injected into the tail vein of LNCaP tumor-bearing male CB-17 SCID mice and sacrificed after 24 h post injection. Selected organs were removed, weighted and measured in a γ-counter.\nFIG. 10 and the following table show the biodistribution data 24 h p.i. of ^177Lu-labeled compounds in LNCaP tumor-bearing CB17-SCID mice. Data are expressed as mean±SD (n=4-5)."}, "LNCaP cells": {"test_system": "LNCaP cells", "experiment": "Internalization studies on LNCaP cells", "assay_type": "cell-based", "settings": "177Lu-labelled, c=1.0 nM, 1 hour, 37 °C; % of reference ligand ([125I]I-BA)KuE (c=0.2 nM); corrected for non-specific binding (PMPA); mean±SD, n=3-6", "procedure": "PSMA-positive LNCAP cells (300265; Cell Lines Service, Eppelheim, Germany) were cultivated in Dulbecco modified Eagle medium/Nutrition Mixture F-12 with Glutamax (1:1) (DMEM-F12, Biochrom, Berlin, Germany) supplemented with fetal bovine serum (10%, FBS Zellkultur, Berlin, Germany) and kept at 37° C. in a humidified CO2 atmosphere (5%). A mixture of trypsin and EDTA (0.05%, 0.02%) in PBS (Biochrom) was used in order to harvest cells. Cells were counted with a Neubauer hemocytometer (Paul Marienfeld, Lauda-Königshofen, Germany).\nFor internalization studies, LNCaP cells were harvested 24±2 hours before the experiment and seeded in poly-L-lysine coated 24-well plates (1.25×10^5 cells in 1 mL/well, Greiner Bio-One, Kremsmünster, Austria). After removal of the culture medium, the cells were washed once with 500 μL DMEM-F12 (5% BSA) and left to equilibrate for at least 15 min at 37° C. in 200 μL DMEM-F12 (5% BSA). Each well was treated with either 25 μL of either DMEM-F12 (5% BSA, control) or 25 μL of a 100 μM PMPA (2-(Phosphonomethyl)-pentandioic acid, Tocris Bioscience, Bristol, UK) solution in PBS, for blockade. Next, 25 μL of the radioactive-labelled PSMA inhibitor (10.0 nM in PBS) was added and the cells were incubated at 37° C. for 60 min. The experiment was terminated by placing the 24-well plate on ice for 3 min and consecutive removal of the medium. Each well was carefully washed with 250 μL of ice-cold HBSS. Both fractions from the first steps, representing the amount of free radioligand, were combined. Removal of surface bound activity was accomplished by incubation of the cells with 250 μL of ice-cold PMPA (10 μM in PBS) solution for 5 min and rinsed again with another 250 μL of ice-cold PBS. The internalized activity was determined by incubation of the cells in 250 μL 1 M aqueous NaOH for at least 10 min. The obtained fractions were combined with those of the subsequent wash step with 250 μL 1 M aqueous NaOH. Each experiment (control and blockade) was performed in triplicate. Free, surface bound and internalized activity was quantified in a γ-counter. All internalization studies were accompanied by external reference studies, using ([^125I]l-BA)KuE (c=0.2 nM), which were performed analogously. Data were corrected for non-specific binding and normalized to the specific-internalization observed for the radioiodinated reference compound.\nData is corrected for non-specific binding (10 μmol PMPA) and expressed as mean±SD (n=3-6): […]"}, "[2]": {"molecular_target": "human serum albumin (HSA) (Homo sapiens, UniProt P02768)", "sequence (P02768 25-609)": "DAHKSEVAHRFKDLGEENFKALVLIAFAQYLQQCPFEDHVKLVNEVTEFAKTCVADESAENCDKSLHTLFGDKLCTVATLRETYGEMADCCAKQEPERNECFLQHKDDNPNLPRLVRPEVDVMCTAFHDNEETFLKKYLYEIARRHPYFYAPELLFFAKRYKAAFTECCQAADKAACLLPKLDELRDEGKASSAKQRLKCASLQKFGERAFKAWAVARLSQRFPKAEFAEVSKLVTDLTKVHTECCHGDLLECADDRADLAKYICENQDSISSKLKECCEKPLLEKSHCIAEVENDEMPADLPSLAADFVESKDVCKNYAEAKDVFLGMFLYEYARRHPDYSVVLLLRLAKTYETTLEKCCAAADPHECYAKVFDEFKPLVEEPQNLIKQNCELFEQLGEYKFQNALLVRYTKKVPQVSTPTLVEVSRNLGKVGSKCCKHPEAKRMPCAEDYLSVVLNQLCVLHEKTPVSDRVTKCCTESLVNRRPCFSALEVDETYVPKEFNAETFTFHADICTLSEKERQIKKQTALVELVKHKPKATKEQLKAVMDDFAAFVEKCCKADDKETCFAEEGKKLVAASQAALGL", "experiment": "HSA binding by radio inversed affinity chromatography (RIAC)", "assay_type": "in vitro ADME", "settings": "177Lu-labelled; Superdex 75 Increase 10/300 GL, 700 μM HSA in PBS, 0.8 mL/min", "procedure": "A gel filtration column Superdex 75 Increase 10/300 GL (GE Healthcare, Uppsala, Sweden) was beforehand calibrated following the producer's recommendations with a commercially available gel filtration calibration kit (GE Healthcare, Buckinghamshire, UK) comprising conalbumin (MW: 75 kDa), ovalbumin (44 kDa), carbonic anhydrase (29 kDa), ribonuclease A (13.7 kDa) and aprotinin (6.5 kDa) as reference proteins of known molecular weight. RIAC experiments were conducted using a constant flow rate of 0.8 mL/min at rt. A solution of HSA in PBS at physiological concentration (700 μM) was used as the mobile phase. PSMA ligands were labelled as described with molar activities of 10-20 GBq/μmol. Probes of 1.0 MBq of the radioligand were injected directly from the labelling solution. HSA binding was expressed as an apparent molecular weight MW calculated from the retention time of the radioligand using the determined calibration curve.\nThe following table summarizes the underlying data. MW: molecular weight. tR: experimentally determined retention time. V: elution volume. Kav: partition coefficient.\nRIAC, in an inversed way, comprises ligand samples (radiolabeled PSMA ligands) and a protein (HSA) containing mobile phase. Ligand-specific retention is caused by interaction of the ligand probe and HSA in the mobile phase. Unbound species, due to a molecular weight beneath the molecular cut off of the gel filtration column, are maximally retained while bound species are eluted in accordance to the higher molecular weight of the ligand-HSA-complex (MWHSA: 66.47 kDa). Experiments show a single radiopeak indicating a dynamic process of formation and dissociation of the ligand-HSA-complex throughout the passage through the column bed. Accordingly, the absolute retention time is the result of the ligand's mean time of abidance at HSA which is directly defined by the ligand's binding kinetics and affinity toward HSA. For evaluation, experimentally determined retention times tR are first converted into elution volumes Ve by multiplying with the flow rate and thereafter converted into partition coefficients Kav following the equation\nwhere V0 is the column void volume (8.027 mL) and Vc is the geometric column volume (24 mL). Using the equation given by the trend line plot of the column calibration\nthe apparent molecular weight MW is calculated as\nFIG. 7 and the table below show the results HSA-binding of lutetium-complexed PSMA-ligands and reference compounds determined by RIAC on a Superdex 75 Increase 10/300 GL column 700 μM HSA in PBS as solvent using a constant flow rate of 0.8 mL/min (plotted data, extracted from FIG. 8).\nFIG. 8 illustrates the determination of HSA binding via radio inverse affinity chromatography (RIAC). Correlation of apparent molecular weight (MW) in Dalton (Da) and retention time of ^177Lu-labeled samples, determined on a Superdex 75 Increase 10/300 GL with 700 μM HSA in PBS as solvent using a constant flow rate of 0.8 mL/min."}}}
{"smiles": "O=C(O)CC[C@H](NC(=O)N[C@@H](CCCCNC(=O)CCCCCCC(=O)NCCCC[C@@H](NC(=O)[C@@H](Cc1ccccc1)NC(=O)[C@@H](Cc1ccc(O)c(I)c1)NC(=O)CCC(C(=O)O)N1CCN(CC(=O)O)CCN(CC(=O)O)CCN(CC(=O)O)CC1)C(=O)O)C(=O)O)C(=O)O", "note": "(stereo partly drawn) [PSMA I&T, reference compound]", "values": [{"measurement": "biodistribution: tumor", "setting": "[1]; LNCaP xenograft", "value": "4.1 ± 1.1", "unit": "% ID/g"}, {"measurement": "biodistribution: blood", "setting": "[1]; i.v. tail vein", "value": "0.012 ± 0.01", "unit": "% ID/g"}, {"measurement": "biodistribution: adrenals", "setting": "[1]", "value": "1.06 ± 0.24", "unit": "% ID/g"}, {"measurement": "biodistribution: bone", "setting": "[1]", "value": "0.01 ± 0.01", "unit": "% ID/g"}, {"measurement": "biodistribution: heart", "setting": "[1]", "value": "0.05 ± 0.03", "unit": "% ID/g"}, {"measurement": "biodistribution: intestine", "setting": "[1]", "value": "0.12 ± 0.06", "unit": "% ID/g"}, {"measurement": "biodistribution: kidneys", "setting": "[1]", "value": "34.7 ± 17.2", "unit": "% ID/g"}, {"measurement": "biodistribution: liver", "setting": "[1]", "value": "0.05 ± 0.01", "unit": "% ID/g"}, {"measurement": "biodistribution: lung", "setting": "[1]", "value": "0.16 ± 0.03", "unit": "% ID/g"}, {"measurement": "biodistribution: muscle", "setting": "[1]", "value": "0.01 ± 0.01", "unit": "% ID/g"}, {"measurement": "biodistribution: pancreas", "setting": "[1]", "value": "0.05 ± 0.02", "unit": "% ID/g"}, {"measurement": "biodistribution: spleen", "setting": "[1]", "value": "1.94 ± 1.01", "unit": "% ID/g"}, {"measurement": "biodistribution: stomach", "setting": "[1]", "value": "0.05 ± 0.02", "unit": "% ID/g"}, {"measurement": "Internalization (% IBA)", "setting": "LNCaP cells", "value": "76 ± 2", "unit": "% IBA"}, {"measurement": "HSA-binding RIAC (apparent molecular weight)", "setting": "[2]", "value": 5.3, "unit": "kDa"}]}
